Laboratory results published in patent US20240024494A1, “SMALL-MOLECULE CONJUGATE AND USE THEREOF” (SHANGHAI MEWSGEN BIOTECHNOLOGY CO., LTD, priority 2020, published 2024).
Like-named read-outs stand apart in the source and are kept apart here.

Experiments:
[1] = test system: HCT116 (human colon carcinoma cells); test: Tumor cell proliferation inhibition test, CCK-8 method (Example 19); type: cell-based
Experimental: (§1) A part of the compounds prepared in the examples of the present disclosure were subjected to a tumor cell proliferation inhibition test by using a CCK-8 method. A cell line HCT116 (human colon carcinoma cells) and SW1990 (human pancreatic carcinoma cells) were purchased from Shanghai Meixuan Technology Co., Ltd. Samples (a part of the compounds prepared in the examples) were dissolved in DMSO (Merck), prepared into a concentration of 10 mM, and finally triply diluted in DMEM or McCoy's 5A 1640 medium to 8 concentration gradients. A cell culture solution was collected when a cell culture met a test requirement, 10 μL of the cell culture solution was uniformly coated on a cell counting plate, cells were counted for 3 times under a microscope, and a cell density was calculated by taking an average value; and a 96-well plate (Corning, #3599) was taken, 200 μL of the cell culture solution was added into each well for cell inoculation at a cell concentration of 6×10^3 cells per well, and the inoculated 96-well plate was incubated in a cell incubator containing 5% CO2 at 37° C. for 24 h. An old culture medium was removed by suction, 200 μL of the triply diluted sample DMEM or McCoy's 5A 1640 medium at an initial concentration of 10 μmol/L was added to each well, the DMSO content was controlled to be 1%, three duplicate wells were set, PBS was used as a blank control, and the plate was incubated in the incubator for 72 h. The original DMEM or McCoy's 5A 1640 medium in the 96-well plate and a PBS buffer in a final row were sucked out, a prepared CCK-8 solution (90% DMEM or McCoy's 5A 1640 medium+10% CCK-8) was added, the mixture was incubated in an incubator, and an absorbance was read by using a Biotek microplate reader. Cell growth inhibition rate IC %=(blank control well OD value−administration well OD value)/blank control well OD value×100%.

[2] = test system: SW1990 (human pancreatic carcinoma cells); test: as above; type: cell-based
Experimental: as §1

[3] = test system: KYSE-150 (human esophageal squamous carcinoma cells); type: cell-based; settings: 72 h
Excerpt: (§2) A part of the compounds of the examples of the present disclosure were subjected to a tumor cell proliferation inhibition test by using an MTT method (e.g. Pharmacological Research Method of New Drug, 2007: 242-243, edited by Lu Qiujun).
(§3) A cell strain was selected from KYSE-150 (human esophageal squamous carcinoma cells), MGC803 (human gastric carcinoma cells), and SHG44 (human glioma cells), and frozen and passaged by a pharmacological laboratory of Shanghai Institute of Pharmaceutical Industry. A culture solution was DMEM+10% FBS+double antibody.
(§4) In-vitro activity test: 100 μL of a cell suspension at a concentration of 4-5×10^4/mL was added to each well of a 96-well plate, and placed in a 5% CO2 incubator at 37° C. After 24 h, a sample solution was added at 10 μL/well, double duplicate wells were set, and a reaction was performed at 37° C. with 5% CO2 for 72 h. 20 μL of 5 mg/ml of an MTT solution was added into each well and reacted for 4 h, a dissolving solution was added at 100 μL/well, the mixture was placed in an incubator, and after dissolution, an OD value at 570 nm was measured with a full-wavelength multifunctional microplate reader. An inhibition rate (IR) and a median inhibitory concentration (IC50) were calculated by using an Excel software.
(§5) The inhibition rate (IR %) of the drug on cell growth was calculated according to the following equation: […]

[4] = test system: SHG44 (human glioma cells); type: cell-based; settings: 72 h
Excerpt: as §2, §3, §4, §5

[5] = test system: MGC803 (human gastric carcinoma cells); type: cell-based; settings: 72 h
Excerpt: as §2, §3, §4, §5

[6] = test system: human gastric carcinoma MGC803; test: In-vivo antitumor activity test in human gastric carcinoma MGC803 (subcutaneous tumor block in nude mice); parameters: species or system BALB/C nude mice; settings: MGC803; 10 mg/kg, Ipx5 each week for 2 continuous weeks; d22
Experimental: (§6) Animals: BALB/C nude mice (SPF grade), male, and 18-20 g. The compounds were firstly added with DMSO at a total amount of 4%, then added with Tween-80 at a total amount of 2% for assisting dissolution, then added with PEG300 at a total amount of 5%, and finally added with sterilized normal saline to be prepared into a solution at 1 mg/mL. Idasanutlin was firstly added with DMSO at a total amount of 4%, then added with Tween-80 at a total amount of 2% for assisting dissolution, then added with PEG300 at a total amount of 5%, and finally added with sterilized normal saline to be prepared into a solution at 2.5 mg/mL.
(§7) A well-grown human gastric carcinoma MGC803 tumor mass was taken and aseptically cut into uniform small blocks of about 3 mm in size, and a right axilla of each mouse was subcutaneously inoculated with one block through a trocar. […] The animals were regrouped according to a tumor size. The animals with too large and too small tumors were sifted out. An average tumor volume in each group was approximately the same. An administration was started according to the following solution with an administration volume of 0.2 mL/20 g body weight. A long diameter a (mm) of the tumor and a short diameter b (mm) vertical to the tumor were measured by a digital display electronic caliper 2 times a week from day 9 of the inoculation. A tumor volume was calculated by the formula: TV=ab^2/2, and a relative tumor volume was calculated by the formula: RTV=Vt/Vo, wherein Vo was the obtained tumor volume measured at a cage separation (i.e. d1) and Vt was the tumor volume measured at each time. The animals were sacrificed 30 days after the inoculation (d22) and weighed, tumor mass was obtained by dissection and weighed, and the results were determined according to the following formula: […]

[7] = test system: human esophageal cancer KYSE-150; test: In-vivo antitumor activity test in human esophageal cancer KYSE-150 (subcutaneous tumor block in nude mice); parameters: species or system BALB/C nude mice; settings: KYSE-150; 10 mg/kg, Ipx5 each week for 2 continuous weeks; d22
Experimental: as §6
as §7, with “esophageal cancer KYSE-150” for “gastric carcinoma MGC803”

[8] = In-vivo antitumor activity test in human stromal tumor SHG44 (subcutaneous tumor block in nude mice); parameters: species or system BALB/C nude mice; settings: SHG44; 10 mg/kg, Ipx5 each week for 2 continuous weeks; d22; in g (unit assumed)
Experimental: as §6
A well-grown human stromal tumor SHG44 mass was taken and aseptically cut into uniform small blocks of about 3 mm in size, and a right axilla of each mouse was subcutaneously inoculated with one block through a trocar. […] The animals were regrouped according to a tumor size. The animals with too large and too small tumors were sifted out. An average tumor volume in each group was approximately the same. An administration was started according to the following solution with an administration volume of 0.2 mL/20 g body weight. A long diameter a (mm) of the tumor and a short diameter b (mm) vertical to the tumor were measured by a digital display electronic caliper 2 times a week from day 9 of the inoculation. A tumor volume was calculated by the formula: TV=ab^2/2, and a relative tumor volume was calculated by the formula: RTV=Vt/Vo, wherein Vo was the obtained tumor volume measured at a cage separation (i.e. d1) and Vt was the tumor volume measured at each time. The animals were sacrificed 30 days after the inoculation (d22) and weighed, tumor mass was obtained by dissection and weighed, and the results were determined according to the following formula: […]

Structure (SMILES) | IC50 ([1]; 72 h) [nM] | IC50 ([2]; 72 h) [nM] | IC50 [3] [nM] | IC50 [4] [nM] | IC50 [5] [nM] | Body weight of animals (After a tumor is removed) [6] | Body weight of animals (After a tumor is removed) [7] | Body weight of animals (After a tumor is removed) [8] | IC50 ([1]; CCK-8, 72 h, Table 1, read-out: IC50 HCT116) [nM] | IC50 ([2]; CCK-8, 72 h, Table 1, read-out: IC50 SW1990) [nM] | IC50 ([3]; MTT, Table 2, read-out: IC50 KYSE-150) [nM] | IC50 ([4]; MTT, Table 2, read-out: IC50 SHG44) [nM] | IC50 ([5]; MTT, Table 2, read-out: IC50 MGC803) [nM]
COc1cc(C(=O)NCCOCCOCCOCCOCCC(=O)N[C@@H](C(=O)N[C@@H](CCCNC(N)=O)C(=O)Nc2ccc(COC(=O)N3CCC(NC(=O)O[C@H]4CC[C@]5(C)C6CC[C@]7(C)[C@@H](c8ccc(=O)oc8)CC[C@]7(O)C6CC[C@@H]5C4)CC3)cc2)C(C)C)ccc1NC(=O)[C@@H]1N[C@@H](CC(C)(C)C)[C@](C#N)(c2ccc(Cl)cc2F)[C@H]1c1cccc(Cl)c1F (stereo partly shown) [Compound I-4] | 728 | 576 | 1060 | 319 | 1670 | 24.95 ± 1.62 | 24.99 ± 1.48 | 26.10 ± 2.00 | – | – | – | – | –
COc1cc(C(=O)NCCOCCOCCOCCOCCC(=O)N[C@@H](C(=O)N[C@@H](CCCNC(N)=O)C(=O)Nc2ccc(COC(=O)NC3=C(C)C(=O)C4=C(C3=O)[C@@H](COC(N)=O)[C@@]3(OC)[C@H]5N[C@H]5CN43)cc2)C(C)C)ccc1NC(=O)[C@@H]1N[C@@H](CC(C)(C)C)[C@](C#N)(c2ccc(Cl)cc2F)[C@H]1c1cccc(Cl)c1F [Compound I-6] | – | – | – | – | – | – | – | – | 542 | > 50000 | 19400 | > 50000 | > 50000
COc1cc(C(=O)NCCOCCOCCOCCOCCC(=O)NCC(=O)NCC(=O)N[C@@H](Cc2ccccc2)C(=O)NCC(=O)Nc2ccc(COC(=O)N3CCN(C(=O)O[C@H]4CC[C@@]5(C)[C@H](CC[C@@H]6[C@@H]5[C@H](O)C(=O)[C@]5(C)[C@@H](c7ccc(=O)oc7)CC[C@]65O)C4)CC3)cc2)ccc1NC(=O)[C@@H]1N[C@@H](CC(C)(C)C)[C@](C#N)(c2ccc(Cl)cc2F)[C@H]1c1cccc(Cl)c1F [Compound I-16] | 210 | 22 | 243 | 41 | 402 | – | – | 25.13 ± 0.97 | – | – | – | – | –
COc1cc(C(=O)NCCOCCOCCOCCOCCC(=O)NCC(=O)NCC(=O)N[C@@H](Cc2ccccc2)C(=O)NCC(=O)Nc2ccc(COC(=O)N3CCC(NC(=O)O[C@H]4CC[C@]5(C)C6CC[C@]7(C)[C@@H](c8ccc(=O)oc8)CC[C@]7(O)C6CC[C@@H]5C4)CC3)cc2)ccc1NC(=O)[C@@H]1N[C@@H](CC(C)(C)C)[C@](C#N)(c2ccc(Cl)cc2F)[C@H]1c1cccc(Cl)c1F (stereo partly shown) [Compound I-17] | 898 | 287 | 1890 | 204 | 1620 | – | – | 25.60 ± 0.98 | – | – | – | – | –
